Reference: the OligoGym collection
“And” between values parts separate entries of the source, which are not always exact repeats. Equal values may be shown once. After the bases stand the sugars from the 5' end (letter, count) and the backbone: PS all phosphorothioate, else s phosphorothioate and o phosphodiester by linkage. Methylation of C is not given here. e = 2'-O-(2-methoxyethyl) (MOE); k = constrained ethyl (cEt); d = 2'-deoxy (DNA)

Target: IRF4
Details: ASO

“CAGTGATGTCAGGTTT (sugars kkdddddddddkekek, PS)” gave a target mRNA inhibition (MM.1R, 0.074 µM) of 8%, a target mRNA inhibition (MM.1R, 0.222 µM) of 28% and a target mRNA inhibition (MM.1R, 0.666 µM) of 53%. The target mRNA inhibition (MM.1R, 1 µM) was 64% and the target mRNA inhibition (MM.1R, 2 µM) was 77%.

Work on “CAGTGATGTCAGGTTT (sugars kkkddddddddkekek, PS)” yielded a target mRNA inhibition (MM.1R, 0.074 µM) of 19%, a target mRNA inhibition (MM.1R, 0.222 µM) of 40% and a target mRNA inhibition (MM.1R, 0.666 µM) of 56%. The target mRNA inhibition (MM.1R, 1 µM) was 56% and the target mRNA inhibition (MM.1R, 2 µM) was 74%.

CAGTGGAGCTCCACAG (sugars k3 d10 k3, PS) was tested, and the target mRNA inhibition (SK-MEL-28, 4 µM) was 41%.

“CAGTTGTAAATGAGTC (sugars k2 d9 e3 k2, PS)” gave a target mRNA inhibition (H929, 0.00067 µM) of 26%, a target mRNA inhibition (H929, 0.002 µM) of 46% and a target mRNA inhibition (H929, 0.00667 µM) of 64%. The target mRNA inhibition (H929, 0.02 µM) was 72%, the target mRNA inhibition (H929, 0.04 µM) was 50% and the target mRNA inhibition (KMS11, 0.2 µM) was 83% and 91%. The target mRNA inhibition (MM.1R, 0.074 µM) was 10%, the target mRNA inhibition (MM.1R, 0.222 µM) was 28% and the target mRNA inhibition (MM.1R, 0.666 µM) was 52%. The target mRNA inhibition (MM.1R, 1 µM) was 62% and the target mRNA inhibition (MM.1R, 2 µM) was 77%.

In the case of “CAGTTGTAAATGAGTC (sugars kdddddddddkekeke, PS)”, the target mRNA inhibition (H929, 0.00067 µM) is reported as 9%, the target mRNA inhibition (H929, 0.002 µM) is reported as 26% and the target mRNA inhibition (H929, 0.00667 µM) is reported as 39%. The target mRNA inhibition (H929, 0.02 µM) was 48%, the target mRNA inhibition (H929, 0.04 µM) was 27% and the target mRNA inhibition (KMS11, 0.2 µM) was 62% and 74%. The target mRNA inhibition (MM.1R, 0.074 µM) was 20%, the target mRNA inhibition (MM.1R, 0.222 µM) was 36% and the target mRNA inhibition (MM.1R, 0.666 µM) was 59%. It also gave a target mRNA inhibition (MM.1R, 1 µM) of 62% and a target mRNA inhibition (MM.1R, 2 µM) of 79%.

Work on “CAGTTGTAAATGAGTC (sugars kkddddddddddkeke, PS)” yielded a target mRNA inhibition (MM.1R, 0.074 µM) of 19%, a target mRNA inhibition (MM.1R, 0.222 µM) of 35% and a target mRNA inhibition (MM.1R, 0.666 µM) of 49%. The target mRNA inhibition (MM.1R, 1 µM) was 59% and the target mRNA inhibition (MM.1R, 2 µM) was 73%.

“CAGTTGTAAATGAGTC (sugars kkkdddddddddkeke, PS)” showed a target mRNA inhibition (MM.1R, 0.074 µM) of 21%, a target mRNA inhibition (MM.1R, 0.222 µM) of 28% and a target mRNA inhibition (MM.1R, 0.666 µM) of 57%. For the same sequence, the target mRNA inhibition (MM.1R, 1 µM) was 58% and the target mRNA inhibition (MM.1R, 2 µM) was 80%.

Work on “CAGTTGTAAATGAGTC (sugars kkkddddddddkekek, PS)” yielded a target mRNA inhibition (MM.1R, 0.074 µM) of 26%, a target mRNA inhibition (MM.1R, 0.222 µM) of 52% and a target mRNA inhibition (MM.1R, 0.666 µM) of 75%. The target mRNA inhibition (MM.1R, 1 µM) was 76% and the target mRNA inhibition (MM.1R, 2 µM) was 88%.

With CATAACACGGTGTTGA (sugars k3 d10 k3, PS) the target mRNA inhibition (SK-MEL-28, 4 µM) was 36%.

In the case of CATACAGTGTGATTAA (sugars k3 d10 k3, PS), the target mRNA inhibition (SK-MEL-28, 4 µM) is reported as 53%.

Work on CATACCTACAAGCAGT (sugars k3 d10 k3, PS) yielded a target mRNA inhibition (SK-MEL-28, 4 µM) of 43%.

Work on CATAGGTCCTTCAGAT (sugars k3 d10 k3, PS) yielded a target mRNA inhibition (MM.1R, 1 µM) of -5%.

Sequence CATCCGAAAAGACTGG (sugars k3 d10 k3, PS) has a target mRNA inhibition (MM.1R, 1 µM) of 14%.

In the case of CATCGAGATCAGTCTC (sugars k3 d10 k3, PS), the target mRNA inhibition (SK-MEL-28, 4 µM) is reported as 65%.

With CATGAGCTCGGTCAAC (sugars k3 d10 k3, PS) the target mRNA inhibition (MM.1R, 1 µM) was -1%.

With CATGGAGGATCATAAA (sugars k3 d10 k3, PS) the target mRNA inhibition (SK-MEL-28, 4 µM) was 22%.

Sequence CATGGGACATTGGTAC (sugars k3 d10 k3, PS) has a target mRNA inhibition (MM.1R, 1 µM) of 18%.

For CATGGGAGATCCGGCA (sugars k3 d10 k3, PS), the target mRNA inhibition (SK-MEL-28, 4 µM) was 41%.

CATGTAGTTGTGAACC (sugars k3 d10 k3, PS) showed a target mRNA inhibition (SK-MEL-28, 4 µM) of 27%.

CATTAAAGAGTGGTAC (sugars k3 d10 k3, PS) was tested, and the target mRNA inhibition (SK-MEL-28, 4 µM) was -3%.

CATTAGCAATTAGCTC (sugars k3 d10 k3, PS) was tested, and the target mRNA inhibition (MM.1R, 1 µM) was -37%.

CATTCCCTAGGTCATA (sugars k3 d10 k3, PS) was tested, and the target mRNA inhibition (SK-MEL-28, 4 µM) was 54%.

CATTTCATTTAATGTC (sugars k4 d8 k4, PS) was tested, and the target mRNA inhibition (SK-MEL-28, 4 µM) was 44%.

Sequence CATTTTATGGACCACG (sugars k3 d10 k3, PS) has a target mRNA inhibition (SK-MEL-28, 4 µM) of 62%.

CCAAAGCATAGAGTCA (sugars k3 d10 k3, PS) gave a target mRNA inhibition (SK-MEL-28, 4 µM) of 58%.

CCAAAGGCTCCCGACA (sugars k3 d10 k3, PS) was tested, and the target mRNA inhibition (SK-MEL-28, 4 µM) was 29%.

For CCAAATGACTTAGTCA (sugars k3 d10 k3, PS), the target mRNA inhibition (SK-MEL-28, 4 µM) was 51%.

In the case of CCAAGATCGAGCGGTG (sugars k3 d10 k3, PS), the target mRNA inhibition (SK-MEL-28, 4 µM) is reported as 37%.

CCAAGGCTACAGGCAC (sugars k3 d10 k3, PS) showed a target mRNA inhibition (SK-MEL-28, 4 µM) of 63%.
